Measured values reported in patent US20260265259A1, “SUBSTITUTED 6-IMIDAZOPYRIDAZINE IL-17A MODULATORS AND USES THEREOF” (DICE ALPHA, INC., priority 2023, published 2026).

test system: IL-17A/A; assay: IL-17A/A HEK-Blue cell assay; type: cell-based; settings: HEK-Blue, 20 h, IL-17A/A inhibition, HEK-Blue IL-17A reporter cell line, IL17A/A 5 ng/mL, SEAP read at A630, read-out: AA IC50
In short: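 HEK 293 reporter cells expressing IL-17RA, IL-17RC and Act1, stimulated with 5 ng/mL IL17A/A or IL17A/F for 20 h alongside compound (10 μM to 27 pM, 0.1% DMSO). NFκB-driven SEAP in the medium read at A630 with Quanti-Blue; IC50 from 4-parameter fit.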

Row | IC50 [nM] | SMILES
1 | < 100 | CCn1nccc1C(=O)N[C@H](c1cn2nc(C[C@@H]3C[C@@H](C)CNC3=O)c(C3CCOCC3)cc2n1)C1CCC(F)(F)CC1 [Compound 101, N—((1S)-(4,4-difluorocyclohexyl)(6-(((5R)-5-methyl-2-oxopiperidin-3-yl)methyl)-7-(tetrahydro-2H-pyran-4-yl)imidazo[1,2-b]pyridazin-2-yl)methyl)-1-ethyl-1H-pyrazole-5-carboxamide]
2 | 100 to 1000 | O=C(N[C@H](c1cn2nc(C[C@@H]3C[C@@H](C(F)(F)F)CNC3=O)c(N3CCOCC3)cc2n1)C1CCC(F)(F)CC1)c1nonc1C1CC1 [Compound 17]
3 | 100 to 1000 | O=C(N[C@H](c1cn2nc(C[C@H]3C[C@@H](C(F)(F)F)CNC3=O)c(C3CCOCC3)cc2n1)C1CCC(F)(F)CC1)c1ccnn1C1CC1(F)F (stereo partly drawn) [Compound 92]
